From patent publication US10596165B2, “Combination therapies” (resTORbio, Inc., priority 2018, dated 2020)

Experiments:
R6/2 brain slices [1] = test: polyQ density (immunohistochemical detection of PolyQ inclusions) in R6/2 corticostriatal slice cultures; assay type: cell-based, mouse; conditions: DIV14 to DIV21, read at DIV21, vs DMSO treated R6/2 slices
Description: (§1) Slice cultures were established according to described procedures. (L. Stoppini et al., J. Neurosci. Methods 37(2): 173-82 (1991) and N. Gogolla et al., Nat. Protoc. 1(3): 1165-71 (2006)). A particular cutting angle was utilized to produce brain slices with a preserved cortico-striatal pathway. Finally, slices were selected, placed on Millicel (Millipore, PICM03050) and cultured in 6-well dishes at 35° C. and 5% CO2 in the presence of 1 ml of culture medium.
(§2) Slices were treated with different mTOR inhibitors from DIV14 to DIV21. The culture medium was exchanged every second day, and drugs were added in the fresh culture medium. We used this protocol to evaluate the action of the following mTOR inhibitors: RTB101 (50 and 300 nM in DMSO), everolimus (250 nM in DMSO), CCG168 (300 nM in DMSO), and everolimus+RTB101 (250 and 10, 250and 30 and 250 and 50 nM in DMSO). […]
(§3) High resolution images were acquired on an upright Zeiss LSM700 confocal microscope, using a Plan-Neofluar 40x/1.3 oil immersion objective. For the quantification of the PolyQ density and DARPP-32/NeuF signal intensity, at least three confocal 3D stacks/slice were acquired in striatum for each experiment (five slices per condition), and analyzed using Imaris 4.2 (BitplaneAG) and Image J softwares. All data are expressed as mean±SEM. […]

R6/2 brain slices [2] = test: Striatal degeneration: DARPP-32 intensity and neurofilament levels in R6/2 slice cultures; assay type: cell-based, mouse; conditions: single low-concentrations (everolimus 250 nM; RTB101 50 nM), DIV21
Description: as §1, §2, §3

| Structure (SMILES) | polyQ density (R6/2 brain slices [1]; 50 nM RTB101 single treatment) | polyQ density (R6/2 brain slices [1]; 250 nM everolimus single treatment) | DARPP-32 level (R6/2 brain slices [2]) | neurofilament level (R6/2 brain slices [2]) |
| --- | --- | --- | --- | --- |
| Cn1c(=O)n(-c2ccc(C(C)(C)C#N)cc2)c2c3cc(-c4cnc5ccccc5c4)ccc3ncc21 [RTB101, 2-methyl-2-[4-(3-methyl-2-oxo-8-quinolin-3-yl-2,3-dihydro-imidazo[4,5-c]quinolin-1-yl)-phenyl]-propionitrile] | no effect | – | – | – |
| CO[C@H]1C[C@@H]2CC[C@@H](C)[C@@](O)(O2)C(=O)C(=O)N2CCCC[C@H]2C(=O)O[C@H]([C@H](C)C[C@@H]2CC[C@@H](OCCO)[C@H](OC)C2)CC(=O)[C@H](C)/C=C(\C)[C@@H](O)[C@@H](OC)C(=O)[C@H](C)C[C@H](C)/C=C/C=C/C=C/1C [everolimus, (1R,9S,12S,15R,16E,18R,19R,21R,23S,24E,26E,28E,30S,32S,35R)-1,18-dihydroxy-12-{(1R)-2-[(1S,3R,4R)-4-(2-hydroxyethoxy)-3-methoxycyclohexyl]-1-methylethyl}-19,30-dimethoxy-15,17,21,23,29,35-hexamethyl-11,36-dioxa-4-aza-tricyclo[30.3.1.04,9]hexatriaconta-16,24,26,28-tetraene-2,3,10,14,20-pentaone] | – | no effect | ineffective | ineffective |
